Test results reported in the supplement of paper PMC11061612.

Columns and labels:
[1] = tested on: TE-9 (Esophageal Squamous Cell Carcinoma); assay: Bliss excess, mean over the matrix (fraction); higher = more synergy
Outline: (§1)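 After 24 hours at 37°C and 5% CO2 in 1536-well plates, cells in DMEM/F12 or RPMI plus 10% FBS received two-drug dose matrices for 72 hours. Viability came from CellTiter-Glo 2.0 luminescence and was scaled as inhibition, anchored at 0 by vehicle wells and at 1 by blank wells. Combination Emax is taken as the second-highest inhibition in the matrix, and Bliss excess as the observed combination effect less EA + EB − EA·EB, with EA and EB the single-agent effects.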

[2] = tested on: CAL-148 (Breast Carcinoma); assay: as above
Outline: as §1

[3] = tested on: HO-1-N-1 (Oral Cavity Carcinoma); assay: as above
Outline: as §1

[4] = tested on: KYSE-520 (Esophageal Squamous Cell Carcinoma); assay: as above
Outline: as §1

[5] = tested on: DEL (T-Cell Non-Hodgkin's Lymphoma); assay: as above
Outline: as §1

[6] = tested on: EC-GI-10 (Esophageal Squamous Cell Carcinoma); assay: as above
Outline: as §1

[7] = tested on: Daoy (Other Solid Carcinomas); assay: combination Emax (second highest fraction inhibited in the dose matrix, 72 h); higher = more inhibition; extreme values may be limits of the assay
Outline: as §1

[8] = tested on: KURAMOCHI (Ovarian Carcinoma); assay: as above
Outline: as §1

[9] = tested on: MDA-MB-361 (Breast Carcinoma); assay: as above
Outline: as §1

[10] = tested on: CaR-1 (Colorectal Carcinoma); assay: as above
Outline: as §1

[11] = tested on: SK-ES-1 (Ewing's Sarcoma); assay: as above
Outline: as §1

[12] = tested on: NCI-H2085 (Non-Small Cell Lung Carcinoma); assay: as above
Outline: as §1

[13] = tested on: LNCaP-Clone-FGC (Prostate Carcinoma); assay: as above
Outline: as §1

[14] = tested on: HO-1-N-1 (Oral Cavity Carcinoma); assay: as above
Outline: as §1

[15] = tested on: HCC-78 (Lung Adenocarcinoma); assay: as above
Outline: as §1

[16] = tested on: B-CPAP (Thyroid Gland Carcinoma); assay: as above
Outline: as §1

[17] = tested on: NCI-H82 (Small Cell Lung Carcinoma); assay: as above
Outline: as §1

KELLY (Neuroblastoma) = assay: as above
Outline: as §1

[18] = tested on: KP-1N (Pancreatic Carcinoma); assay: as above
Outline: as §1

[19] = tested on: RO82-W-1 (Thyroid Gland Carcinoma); assay: as above
Outline: as §1
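For Bliss excess, mean over the matrix in this document: after 72 h of two-drug dosing.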

Row | Structure (SMILES) | Bliss excess [1] | Bliss excess [2] | Bliss excess [3] | Bliss excess [4] | Bliss excess [5] | Bliss excess [6] | combination Emax [7] | combination Emax [8] | combination Emax [9] | combination Emax [10] | combination Emax [11] | combination Emax [12] | combination Emax [13] | combination Emax [14] | combination Emax [15] | combination Emax [16] | combination Emax [17] | combination Emax (KELLY (Neuroblastoma)) | combination Emax [18] | combination Emax [19]
1 | CN(C)CCCOc1ccc(-c2ccc3ncc4c(c3c2)n(C2CCOCC2)c(=O)n4C)cn1 [AZD0156] + C=CCn1c(=O)c2cnc(Nc3ccc(N4CCN(C)CC4)cc3)nc2n1-c1cccc(C(C)(C)O)n1 [AZD1775] (first compound max 1 µM, partner max 1 µM) | -0.0422 | -0.0318 | -0.012 | -0.0232 | -0.0036 | -0.0001 | 0.847 | 0.678 | 0.858 | 0.128 | 0.903 | 0.6 | 0.738 | 0.348 | 0.313 | 0.357 | 0.901 | 1 | 0.471 | 0.38
2 | CN(C)CCCOc1ccc(-c2ccc3ncc4c(c3c2)n(C2CCOCC2)c(=O)n4C)cn1 [AZD0156] + CCN(CCO)CCCOc1ccc2c(Nc3cc(CC(=O)Nc4cccc(F)c4)[nH]n3)ncnc2c1 [AZD2811] (first compound max 1 µM, 7x7, partner max 1 µM) | -0.0214 | -0.0262 | 0.0056 | 0.005 | 0.117 | 0.0507 | 0.303 | 0.115 | 0.456 | 0.145 | 0.952 | 0.547 | 0.556 | 0.74 | 0.159 | 0.189 | 0.45 | 0.684 | 0.293 | 0.308
3 | CN(C)CCCOc1ccc(-c2ccc3ncc4c(c3c2)n(C2CCOCC2)c(=O)n4C)cn1 [AZD0156] + C[C@@H]1COCCN1C2=NC(=NC(=C2)C3(CC3)[S@](=N)(=O)C)C4=C5C=CNC5=NC=C4 [AZD6738] (first compound max 1 µM, 7x7, partner max 10 µM) | -0.0034 | -0.0441 | -0.0101 | -0.0172 | 0.0293 | 0.0263 | 0.848 | 0.597 | 0.9 | 0.435 | 0.855 | 0.824 | 0.737 | 0.809 | 0.613 | 0.479 | 0.948 | 0.987 | 0.399 | 0.34
4 | CN(C)CCCOc1ccc(-c2ccc3ncc4c(c3c2)n(C2CCOCC2)c(=O)n4C)cn1 [AZD0156] + O=C(c1cc(Cc2n[nH]c(=O)c3ccccc23)ccc1F)N1CCN(C(=O)C2CC2)CC1 [Olaparib] (first compound max 3 µM, partner max 3 µM) | 0.109 | 0.0072 | 0.0618 | -0.0172 | 0.312 | 0.0772 | 0.427 | 0.152 | 0.384 | 0.207 | 0.804 | 0.224 | 0.639 | 0.346 | 0.448 | 0.34 | 0.382 | 0.607 | 0.277 | 0.313
5 | C=CCn1c(=O)c2cnc(Nc3ccc(N4CCN(C)CC4)cc3)nc2n1-c1cccc(C(C)(C)O)n1 [AZD1775] + C1CN(CCC1(C(=O)N[C@@H](CCO)C2=CC=C(C=C2)Cl)N)C3=NC=NC4=C3C=CN4 [Capivasertib] (first compound max 3 µM, partner max 3 µM) | -0.002 | -0.0405 | 0.0595 | -0.0129 | 0.0666 | 0.0203 | 0.999 | 0.625 | 0.851 | 0.69 | 0.883 | 0.631 | 1 | 0.781 | 0.626 | 0.815 | 0.884 | 1 | 0.633 | 0.471
6 | C=CCn1c(=O)c2cnc(Nc3ccc(N4CCN(C)CC4)cc3)nc2n1-c1cccc(C(C)(C)O)n1 [AZD1775] + C[C@@H]1COCCN1C2=NC(=NC(=C2)C3(CC3)[S@](=N)(=O)C)C4=C5C=CNC5=NC=C4 [AZD6738] (first compound max 1 µM, partner max 10 µM) | 0.0638 | -0.034 | 0.0456 | -0.003 | 0.0252 | 0.0535 | 0.944 | 0.743 | 0.922 | 0.525 | 0.926 | 0.912 | 0.787 | 0.883 | 0.756 | 0.811 | 0.979 | 1 | 0.397 | 0.445
7 | C=CCn1c(=O)c2cnc(Nc3ccc(N4CCN(C)CC4)cc3)nc2n1-c1cccc(C(C)(C)O)n1 [AZD1775] + O=C(c1cc(Cc2n[nH]c(=O)c3ccccc23)ccc1F)N1CCN(C(=O)C2CC2)CC1 [Olaparib] (first compound max 1 µM, partner max 10 µM) | -0.0271 | 0.0068 | 0.0217 | -0.0301 | 0.0023 | -0.0245 | 0.882 | 0.699 | 0.861 | 0.257 | 0.954 | 0.566 | 0.77 | 0.437 | 0.377 | 0.456 | 0.851 | 0.988 | 0.359 | 0.405
8 | CCN(CCO)CCCOc1ccc2c(Nc3cc(CC(=O)Nc4cccc(F)c4)[nH]n3)ncnc2c1 [AZD2811] + C=CCn1c(=O)c2cnc(Nc3ccc(N4CCN(C)CC4)cc3)nc2n1-c1cccc(C(C)(C)O)n1 [AZD1775] (first compound max 1 µM, partner max 1 µM) | -0.0285 | -0.0165 | -0.0785 | -0.0048 | 0.0636 | 0.0411 | 0.827 | 0.646 | 0.801 | 0.223 | 0.971 | 0.688 | 0.699 | 0.848 | 0.327 | 0.334 | 0.901 | 1 | 0.401 | 0.356
9 | COc1nnc2ccc(N3CCC(c4ccc(OCCN5CCN(C)C(=O)[C@H]5C)cc4)CC3)nn12 [AZD5153] + CN(CC[C@H](CSC1=CC=CC=C1)NC2=C(C=C(C=C2)S(=O)(=O)NC(=O)C3=CC=C(C=C3)N4CCC(CC4)[C@H](C5=CC=CC=C5C6=CC=C(C=C6)Cl)O)S(=O)(=O)C(F)(F)F)CCO [AZD4320] (first compound max 1 µM, 7x7, partner max 1 µM) | – | – | – | 0.023 | 0.0204 | -0.0052 | 0.627 | – | 0.814 | – | 0.871 | – | 0.747 | – | – | 0.925 | – | – | 0.53 | –
10 | Cc1c2c(nn1C)CSCc1cc(n(C)n1)CSc1cc(c3ccccc3c1)OCCCc1c(C(=O)O)n(C)c3c-2c(Cl)ccc13 [AZD5991] + C1CN(CCC1(C(=O)N[C@@H](CCO)C2=CC=C(C=C2)Cl)N)C3=NC=NC4=C3C=CN4 [Capivasertib] (first compound max 1 µM, 7x7, partner max 3 µM) | 0.0095 | 0.0486 | 0.0001 | -0.0068 | -0.012 | 0.0589 | 0.345 | 0.307 | 0.718 | 0.223 | 0.854 | 0.262 | 0.997 | 0.944 | 0.228 | – | 0.976 | 0.676 | 0.249 | 0.246
11 | CS(=O)(=O)CCNCc1ccc(-c2ccc3ncnc(Nc4ccc(OCc5cccc(F)c5)c(Cl)c4)c3c2)o1 [Lapatinib] + NC1(c2ccc(-c3nc4ccn5c(=O)[nH]nc5c4cc3-c3ccccc3)cc2)CCC1 [MK-2206] (first compound max 10 µM, 7x7, partner max 10 µM) | -0.0208 | 0.0253 | 0.0213 | – | – | – | – | 0.763 | – | 0.779 | – | 0.587 | – | 0.963 | 0.264 | 0.909 | 0.932 | 0.959 | – | 0.24
12 | CC(=O)c1c(C)c2cnc(Nc3ccc(N4CCNCC4)cn3)nc2n(C2CCCC2)c1=O [Palbociclib] + CN(CC[C@H](CSC1=CC=CC=C1)NC2=C(C=C(C=C2)S(=O)(=O)NC(=O)C3=CC=C(C=C3)N4CCC(CC4)[C@H](C5=CC=CC=C5C6=CC=C(C=C6)Cl)O)S(=O)(=O)C(F)(F)F)CCO [AZD4320] (first compound max 10 µM, 7x7, partner max 1 µM) | – | – | – | -0.0557 | -0.0135 | -0.0715 | 0.368 | – | 0.185 | – | 0.956 | – | 0.534 | – | – | 0.59 | – | – | 0.27 | –
13 | CCc1c2c(nc3ccc(O)cc13)-c1cc3c(c(=O)n1C2)COC(=O)[C@]3(O)CC [SN-38] + O=C(c1cc(Cc2n[nH]c(=O)c3ccccc23)ccc1F)N1CCN(C(=O)C2CC2)CC1 [Olaparib] (first compound max 0.3 µM, 7x7, partner max 10 µM) | 0.0419 | 0.0981 | 0.06 | – | 0.0923 | – | 0.971 | 0.651 | – | 0.912 | 1 | 0.132 | – | 1 | 0.898 | 0.946 | 0.787 | 0.884 | 0.645 | 0.469
